Experimental data: US8168231B2, “Antimicrobial composition useful for preserving wood” (Rohm and Haas Company, priority 2006, dated 2012)
Read-outs that look alike come from different tables or passages of the source.

Legend:
Assay type in all cases: cell-based
[1] = test system: Staphylococcus aureus (S. aureus—ATCC # 6538); experiment: Synergy test, microtiter plate high resolution MIC assay (M9GY medium); settings: ppm AI; for MIC: Staphylococcus aureus, read-out: MIC of component acting alone (Ca or Cb)
Text: (§1) One measure of synergism is the industrially accepted method described by Kull, F. C.; Eisman, P. C.; Sylwestrowicz, H. D. and Mayer, R. L., in Applied Microbiology 9:538-541 (1961), using the ratio determined by the formula: Ca/CA+Cb/CB=Synergy Index (“SI”) wherein: • CA=concentration of compound A (first component) in ppm, acting alone, which produced an end point (MIC of Compound A). • Ca=concentration of compound A in ppm, in the mixture, which produced an end point. • CB=concentration of compound B (second component) in ppm, acting alone, which produced an end point (MIC of Compound B). • Cb=concentration of compound B in ppm, in the mixture, which produced an end point.
(§2) When the sum of Ca/CA and Cb/CB is greater than one, antagonism is indicated. […] The lower the SI, the greater the synergy shown by that particular mixture. The minimum inhibitory concentration (MIC) of an antimicrobial compound is the lowest concentration tested under a specific set of conditions that prevents the growth of added microorganisms.
(§3) Synergy tests were conducted using standard microtiter plate assays with media designed for optimal growth of the test microorganism. Minimal salt medium supplemented with 0.2% glucose and 0.1% yeast extract (M9GY medium) was used for bacteria testing; Potato Dextrose Broth (PDB medium) was used for yeast and mold testing. In this method, a wide range of combinations of microbicides was tested by conducting high resolution MIC assays in the presence of various concentrations of biocides. High resolution MICs were determined by adding varying amounts of microbicide to one column of a microtitre plate and doing subsequent ten-fold dilutions using an automated liquid handling system to obtain a series of end points ranging of active ingredient. The synergy of the combinations of the present invention was determined against two bacteria, Pseudomonas aeruginosa (Ps. aeruginosa—ATCC # 9027) and Staphylococcus aureus (S. aureus—ATCC # 6538), a yeast, Candida albicans (C. albicans—ATCC # 10231), and a mold, Aspergillus niger (A. niger—ATCC 16404). The bacteria were used at a concentration of about 1-6×10^6 bacteria per mL and the yeast and mold at 1−5×10^5 fungi per mL. These microorganisms are representative of natural contaminants in many consumer and industrial applications. […] (yeast and mold) or 30° C. (bacteria).

[2] = test system: Pseudomonas aeruginosa (Ps. aeruginosa—ATCC # 9027); experiment: as above; settings: ppm AI; for MIC: Pseudomonas aeruginosa, read-out: MIC of component acting alone (Ca or Cb)
Text: as §1, §2, §3

[3] = test system: Aspergillus niger (A. niger—ATCC 16404); experiment: Synergy test, microtiter plate high resolution MIC assay (PDB medium); settings: ppm AI; for MIC: Aspergillus niger, read-out: MIC of component acting alone (Ca or Cb)
Text: as §1, §2, §3

[4] = test system: Candida albicans (C. albicans—ATCC # 10231); experiment: as above; settings: ppm AI; for MIC: Candida albicans, read-out: MIC of component acting alone (Ca or Cb)
Text: as §1, §2, §3

Compound: CCCCCCCCn1sc(Cl)c(Cl)c1=O [DCOIT, 4,5-dichloro-2-n-octyl-4-isothiazolin-3-one]
- MIC ([1]; ATCC6538, 24 h, Table 1, contact time 24 hrs): 0.5 µg/mL
- MIC ([1]; ATCC6538, 24 h, Table 2, contact time 24 hrs): 0.65 µg/mL
- MIC ([1]; ATCC6538, 48 h, Table 1, contact time 48 hrs): 0.5 µg/mL
- MIC ([1]; ATCC6538, 48 h, Table 2, contact time 48 hrs): 0.65 µg/mL
- MIC ([2]; ATCC9027, 24 h, Table 1, contact time 24 hrs): 3 µg/mL
- MIC ([2]; ATCC9027, 24 h, Table 2, contact time 24 hrs): 2 µg/mL
- MIC ([2]; ATCC9027, 48 h, Table 1, contact time 48 hrs): 3 µg/mL
- MIC ([2]; ATCC9027, 48 h, Table 2, contact time 48 hrs): 4.25 µg/mL
- MIC ([3]; ATCC16404, 72 h, Table 1, contact time 3 days): 0.25 µg/mL
- MIC ([3]; ATCC16404, 72 h, Table 2, contact time 3 days): 0.0875 µg/mL
- MIC ([3]; ATCC16404, 168 h, Table 1, contact time 7 days): 0.25 µg/mL
- MIC ([3]; ATCC16404, 168 h, Table 2, contact time 7 days): 0.2 µg/mL
- MIC ([4]; ATCC10231, Table 1, contact time 48 hrs): 1 µg/mL
- MIC ([4]; ATCC10231, Table 1, contact time 72 hrs): 1 µg/mL

Compound: Monoethanolamine complex of copper carbonate [Cu-MEA]
- MIC of component acting alone (Ca or Cb) ([1]; Table 1, contact time 24 hrs): 80 ppm
- MIC of component acting alone (Ca or Cb) ([1]; Table 1, contact time 48 hrs): 200 ppm
- MIC of component acting alone (Ca or Cb) ([2]; Table 1, contact time 24 hrs): 120 ppm
- MIC of component acting alone (Ca or Cb) ([2]; Table 1, contact time 48 hrs): 120 ppm
- MIC of component acting alone (Ca or Cb) ([3]; Table 1, contact time 3 days): 300 ppm
- MIC of component acting alone (Ca or Cb) ([3]; Table 1, contact time 7 days): 300 ppm
- MIC of component acting alone (Ca or Cb) ([4]; Table 1, contact time 48 hrs): 200 ppm
- MIC of component acting alone (Ca or Cb) ([4]; Table 1, contact time 72 hrs): 200 ppm
